Data taken from patent US12448388B2, “PRMT5 inhibitors and uses thereof” (Gilead Sciences, Inc., priority 2023, dated 2025).
Read-outs that look alike come from different tables or passages of the source.

Test system: HCT116 MTAP-deleted cell lines
Experiment: Cell viability assay (CellTiter-Glo, 7 days), HCT116 MTAP-deleted
Format: cell-based
Details: Homo sapiens, HCT-116, HCT116 MTAP-deleted, class symbols, read-out: CC50
Procedure: Control compounds were analyzed in parallel each time for quality control. In Brief, on Day -1, a serial dilution of stock compounds in DMSO was performed using BioMek liquid handlers and dispensed using Echo acoustic dispenser into 384 well plates. Both tool compounds and sample compounds were spotted in the same plate for a dose response of PRMT5 inhibitors. Compound plates were stored as frozen until the cells were ready for seeding. […] After equilibrating the plate in room temperature, the cells were incubated for 7 days inside the sealed incubator set at 37° C. with 90% humidity and 5% CO2. On Day 7, the viability of cells was measured using a CTG assay kit (CellTitre-Glo;Promega cat no. G7573). Shortly, 40 μl per well of luminescent cell viability assay reagent were dispensed using EL460 liquid dispenser 5 μl cassette. CTG luminescence signal was measured using an EnVision plate reader (PerkinElmer) in accordance with manufacturer's instruction. […] Selectivity with * is artificially high due to limited solubility of the compound hampering accurate measurement of WT CC50.

Row | Structure (SMILES) | CC50 (cell viability) | CC50 (cell viability assay)
1 | CN1CCN(C(=O)c2cc3c(cc2F)nc(N)c2cncn23)C(c2ccc(C(F)(F)F)cn2)C1 (centres unmarked) [Ff-136, (4-amino-7-fluoroimidazo[1,5-a]quinoxalin-8-yl)(4-methyl-2-(5-(trifluoromethyl)pyridin-2-yl)piperazin-1-yl)methanone] | 100 to 1000 nM | –
2 | CN(C(=O)c1cc2c(cc1F)nc(N)c1cncn12)[C@@H]1COc2cc([C@@H]3C[C@H]3c3ccccc3)ccc21 (racemic) [Ff-473, Trans-4-amino-7-fluoro-N-methyl-N-((3S)-6-(2-phenylcyclopropyl)-2,3-dihydrobenzofuran-3-yl)imidazo[1,5-a]quinoxaline-8-carboxamide] | – | < 100 nM
3 | CN(C(=O)c1cc2c(cc1F)nc(N)c1cncn12)C1COc2cc3ccccc3cc21 (centres unmarked) [Ff-600, 4-amino-N-(2,3-dihydronaphtho[2,3-b]furan-3-yl)-7-fluoro-N-methylimidazo[1,5-a]quinoxaline-8-carboxamide] | – | < 100 nM
4 | CN(C(=O)c1cc2c(cn1)nc(N)c1cncn12)[C@@H]1COc2cc(C34CC(C(F)F)(C3)C4)ccc21 [Ff-451, (S)-4-amino-N-(6-(3-(difluoromethyl)bicyclo[1.1.1]pentan-1-yl)-2,3-dihydrobenzofuran-3-yl)-N-methylimidazo[1,5-a]pyrido[3,4-e]pyrazine-8-carboxamide] | – | < 100 nM
5 | Cc1ncc2c(N)nc3cnc(C(=O)N(C)[C@@H]4COc5cc(C(F)(F)F)ccc54)cc3n12 [Ff-509, (S)-4-amino-N,1-dimethyl-N-(6-(trifluoromethyl)-2,3-dihydrobenzofuran-3-yl)imidazo[1,5-a]pyrido[3,4-e]pyrazine-8-carboxamide] | – | < 100 nM
6 | CN(Cc1ccc(F)cc1Cl)C(=O)c1cc2c(cc1F)nc(N)c1cncn12 [Ff-31, 4-amino-N-(2-chloro-4-fluorobenzyl)-7-fluoro-N-methylimidazo[1,5-a]quinoxaline-8-carboxamide] | 100 to 1000 nM | –
7 | Cc1ncn2c1c(N)nc1ccc(C(=O)N3C[C@@H](C)O[C@@H]4Cc5cc(OC(F)(F)F)ccc5[C@@H]43)cc12 (single isomer, unassigned) [Fg-22] | – | < 100 nM
8 | CN(C(=O)c1cc2c(cc1F)nc(N)c1cncn12)[C@@H]1COc2cc(-c3cnc(C(F)F)s3)ccc21 [Ff-233, (S)-4-amino-N-(6-(2-(difluoromethyl)thiazol-5-yl)-2,3-dihydrobenzofuran-3-yl)-7-fluoro-N-methylimidazo[1,5-a]quinoxaline-8-carboxamide] | < 100 nM | –
9 | Cc1ncn2c1c(N)nc1cc(F)c(C(=O)N3CCOC[C@@H]3c3ccc(C(F)(F)F)cc3)cc12 [Ff-137] | < 100 nM | –
10 | CN(C(=O)c1cc2c(cc1F)nc(N)c1cncn12)[C@@H]1COc2cc(C3CC3(C)C)ccc21 (stereo partly drawn) [Ff-475, 4-amino-N-((3S)-6-(2,2-dimethylcyclopropyl)-2,3-dihydrobenzofuran-3-yl)-7-fluoro-N-methylimidazo[1,5-a]quinoxaline-8-carboxamide] | – | < 100 nM
11 | Nc1nc2cnc(C(=O)N3CC4(CC4)C[C@@H]4Oc5cc(OC(F)(F)F)ccc5[C@@H]43)cc2n2cncc12 [Fg-61, (4-aminoimidazo[1,5-a]pyrido[3,4-e]pyrazin-8-yl)((4aS,9bS)-7-(trifluoromethoxy)-4a,9b-dihydro-2H-spiro[benzofuro[3,2-b]pyridine-3,1′-cyclopropan]-1(4H)-yl)methanone] | – | < 100 nM
12 | Nc1nc2cc(F)c(C(=O)N3CCC4(CC4)[C@@H]4Oc5cc(C(F)(F)F)ccc5[C@@H]43)cc2n2cncc12 [Ff-676, (4-amino-7-fluoroimidazo[1,5-a]quinoxalin-8-yl)((4aS,9bS)-7-(trifluoromethyl)-2,3,4a,9b-tetrahydro-1H-spiro[benzofuro[3,2-b]pyridine-4,1′-cyclopropan]-1-yl)methanone] | – | < 100 nM
13 | Cc1cc2c(cc1Br)[C@H](N(C)C(=O)c1cc3c(cc1F)nc(N)c1cncn13)CO2 [Ff-460, (S)-4-amino-N-(5-bromo-6-methyl-2,3-dihydrobenzofuran-3-yl)-7-fluoro-N-methylimidazo[1,5-a]quinoxaline-8-carboxamide] | – | < 100 nM
14 | C[C@@H]1CN(C(=O)c2cc3c(cc2F)nc(N)c2cncn23)[C@@H](c2cccc(C(F)F)n2)CO1 (single isomer, unassigned) [Ff-668] | – | 100 to 1000 nM
15 | Nc1nc2cc(F)c(C(=O)N3CCO[C@@H]4Cc5cc(-c6ccc(C(F)(F)F)cc6)ccc5[C@@H]43)cc2n2cncc12 [Ff-240, (4-amino-7-fluoroimidazo[1,5-a]quinoxalin-8-yl)((4aS,9aR)-7-(4-(trifluoromethyl)phenyl)-2,3,9,9a-tetrahydroindeno[2,1-b][1,4]oxazin-4(4aH)-yl)methanone] | 100 to 1000 nM | –
16 | Cc1ncn2c1c(N)nc1cc(F)c(C(=O)N3CCC[C@@H]4Oc5cc(F)ccc5[C@@H]43)cc12 [Fg-26, (4-amino-7-fluoro-3-methylimidazo[1,5-a]quinoxalin-8-yl)((4aS,9bS)-7-fluoro-3,4,4a,9b-tetrahydrobenzofuro[3,2-b]pyridin-1(2H)-yl)methanone] | – | < 100 nM
17 | Cc1ncc2c(N)nc3cnc(C(=O)N4C[C@H](C)C[C@@H]5Oc6c(ccc(C(F)(F)F)c6F)[C@@H]54)cc3n12 [Ff-388, (4-amino-1-methylimidazo[1,5-a]pyrido[3,4-e]pyrazin-8-yl)((3R,4aS,9bS)-6-fluoro-3-methyl-7-(trifluoromethyl)-3,4,4a,9b-tetrahydrobenzofuro[3,2-b]pyridin-1(2H)-yl)methanone] | – | < 100 nM
18 | C[C@H]1CN(C(=O)c2cc3c(cc2Cl)nc(N)c2cncn23)[C@H]2c3ccc(C(F)(F)F)cc3C[C@H]2O1 [Ff-406, (4-amino-7-chloroimidazo[1,5-a]quinoxalin-8-yl)((2S,4aS,9aR)-2-methyl-7-(trifluoromethyl)-2,3,9,9a-tetrahydroindeno[2,1-b][1,4]oxazin-4(4aH)-yl)methanone] | – | < 100 nM
19 | C#Cc1ccc2c(c1)OC[C@H]2N(C)C(=O)c1cc2c(cc1F)nc(N)c1cncn12 [Ff-506, (S)-4-amino-N-(6-ethynyl-2,3-dihydrobenzofuran-3-yl)-7-fluoro-N-methylimidazo[1,5-a]quinoxaline-8-carboxamide] | – | < 100 nM
20 | C[C@@H]1COC[C@H](c2ccc(C(F)(F)F)cn2)N1C(=O)c1cc2c(cn1)nc(N)c1cncn12 [Ff-142, (4-aminoimidazo[1,5-a]pyrido[3,4-e]pyrazin-8-yl)((3R,5S)-3-methyl-5-(5-(trifluoromethyl)pyridin-2-yl)morpholino)methanone] | < 100 nM | –
21 | CN(C(=O)c1cc2c(cc1F)nc(N)c1cncn12)[C@@H](c1ccc(OC(F)(F)F)cc1F)C(F)F [Fb-11, (S)-4-amino-N-(2,2-difluoro-1-(2-fluoro-4-(trifluoromethoxy)phenyl)ethyl)-7-fluoro-N-methylimidazo[1,5-a]quinoxaline-8-carboxamide] | < 100 nM | –
22 | CN(C(=O)c1cc2c(cc1Cl)nc(N)c1cncn12)[C@@H]1COc2cc(OC(F)(F)F)ccc21 [Ff-562, (S)-4-amino-7-chloro-N-methyl-N-(6-(trifluoromethoxy)-2,3-dihydrobenzofuran-3-yl)imidazo[1,5-a]quinoxaline-8-carboxamide] | – | < 100 nM
23 | Cn1cc(N(Cc2ccc(C(F)(F)F)cn2)C(=O)c2cc3c(cc2F)nc(N)c2cncn23)cn1 [Ff-46, 4-amino-7-fluoro-N-(1-methyl-1H-pyrazol-4-yl)-N-((5-(trifluoromethyl)pyridin-2-yl)methyl)imidazo[1,5-a]quinoxaline-8-carboxamide] | < 100 nM | –
24 | CN(C(=O)c1cc2c(cc1F)nc(N)c1cncn12)[C@@H]1COc2cc(-c3cnn4c3COCC4)ccc21 [Ff-150, (S)-4-amino-N-(6-(6,7-dihydro-4H-pyrazolo[5,1-c][1,4]oxazin-3-yl)-2,3-dihydrobenzofuran-3-yl)-7-fluoro-N-methylimidazo[1,5-a]quinoxaline-8-carboxamide] | < 100 nM | –
25 | Cc1ncc2c(N)nc3ccc(C(=O)N(C)Cc4cc5cc(C(F)(F)F)ccn5n4)cc3n12 [Ff-49, 4-amino-N,1-dimethyl-N-((5-(trifluoromethyl)pyrazolo[1,5-a]pyridin-2-yl)methyl)imidazo[1,5-a]quinoxaline-8-carboxamide] | > 1000 nM | –
26 | Cc1ncn2c1c(N)nc1cnc(C(=O)N3CC(C)(C)CC4Oc5cc(OC(F)(F)F)ccc5C43)cc12 (centres unmarked) [Fg-27, (4-amino-3-methylimidazo[1,5-a]pyrido[3,4-e]pyrazin-8-yl)(3,3-dimethyl-7-(trifluoromethoxy)-3,4,4a,9b-tetrahydrobenzofuro[3,2-b]pyridin-1(2H)-yl)methanone] | – | 100 to 1000 nM
27 | CN(C(=O)c1ccc2nc(N)c3cncn3c2c1)[C@@H](c1ccc(C(F)(F)F)cc1Cl)C(F)F [Ff-570, (S)-4-amino-N-(1-(2-chloro-4-(trifluoromethyl)phenyl)-2,2-difluoroethyl)-N-methylimidazo[1,5-a]quinoxaline-8-carboxamide] | – | 100 to 1000 nM
28 | Nc1nc2cc(F)c(C(=O)N3CCC[C@@H]4Oc5cc(C(F)(F)F)ccc5[C@@H]43)cc2n2cnc(Cl)c12 (single isomer, unassigned) [Ff-647] | – | < 100 nM
29 | C[C@@H]1C[C@@H](N(C)C(=O)c2cc3c(cc2F)nc(N)c2cncn23)c2ccc(C(F)(F)F)cc21 [Ff-671, 4-amino-7-fluoro-N-methyl-N-((1R,3R)-3-methyl-5-(trifluoromethyl)-2,3-dihydro-1H-inden-1-yl)imidazo[1,5-a]quinoxaline-8-carboxamide] | – | < 100 nM
